The test system of experiment [1] is symmetric di-methyl arginine in Z-138 cells. The experiment is described as follows: Z-138 Methylation Assay (In Cell Western for symmetric di-methyl arginine and DNA content). Conditions: Homo sapiens, read-out: ICW EC50. Type of experiment: cell-based. From the text: [formula] [formula] Where top and bottom are the normally allowed to float, but may be fixed at 100 or 0 respectively in a 3-parameter fit. The Hill Coefficient normally allowed to float but may also be fixed at 1 in a 3-parameter fit. Y is the % inhibition and X is the compound concentration.
RPMI/Glutamax medium, penicillin-streptomycin, heat inactivated fetal bovine serum, and D-PBS were purchased from Life Technologies, Grand Island, N.Y., USA. Odyssey blocking buffer, 800CW goat anti-rabbit IgG (H+L) antibody, and Licor Odyssey infrared scanner were purchased from Licor Biosciences, Lincoln, Nebr., USA. Symmetric di-methyl arginine antibody was purchased from EMD Millipore, Billerica, Mass., USA. 16% Paraformaldehyde was purchased from Electron Microscopy Sciences, Hatfield, Pa., USA.
Cell Treatment, in Cell Western (ICW) for Detection of Symmetric Di-Methyl Arginine and DNA Content.
Z-138 cells were seeded in assay medium at a concentration of 50,000 cells per mL to a 384-well cell culture plate with 50 μL per well. Compound (100 nL) from 384 well source plates was added directly to 384 well cell plate. Plates were incubated at 37° C., 5% CO2 for 96 hours. […] Plates were incubated at room temperature for 30 minutes then incubated at 37° C., 5% CO2 for 5 hours. After the incubation, 40 μL per well of 8% paraformaldehyde in PBS (16% paraformaldahyde was diluted to 8% in PBS) was added to each plate and incubated for 30 minutes. […] Next 30 μL per well of Odyssey blocking buffer were added to each plate and incubated 1 hour at room temperature. Blocking buffer was removed and 20 μL per well of primary antibody was added (symmetric di-methyl arginine diluted 1:100 in Odyssey buffer with 0.1% Tween 20 (v/v)) and plates were incubated overnight (16 hours) at 4° C. Plates were washed 5 times with 100 μL per well of wash buffer. Next 20 μL per well of secondary antibody was added (1:200 800CW goat anti-rabbit IgG (H+L) antibody, 1:1000 DRAQ5 (Biostatus limited) in Odyssey buffer with 0.1% Tween 20 (v/v)) and incubated for 1 hour at room temperature. The plates were washed 5 times with 100 μL per well wash buffer then 1 time with 100 μL per well of water. Plates were allowed to dry at room temperature then imaged on the Licor Odyssey machine which measures integrated intensity at 700 nm and 800 nm wavelengths. Both 700 and 800 channels were scanned.
First, the ratio for each well was determined by:
Each plate included fourteen control wells of DMSO only treatment (minimum inhibition) as well as fourteen control wells for maximum inhibition treated with 3 μM of a reference compound (Background wells). The average of the ratio values for each control type was calculated and used to determine the percent inhibition for each test well in the plate. Reference compound was serially diluted three-fold in DMSO for a total of nine test concentrations, beginning at 3 μM. Percent inhibition was determined and IC50 curves were generated using triplicate wells per concentration of compound. Percent Inhibition=100−

The next experiment concerns Z-138 cell line. The experiment is described as follows: Z-138 Proliferation Assay (Cell Titer Glo, 5 days). The experiment is classed as cell-based. The settings on record: Homo sapiens, 120 h, Z-138 cells, 5 days, read-out: Proliferation EC50. From the text:
RPMI/Glutamax medium, penicillin-streptomycin, heat inactivated fetal bovine serum were purchased from Life Technologies, Grand Island, N.Y., USA. V-bottom polypropylene 384-well plates were purchased from Greiner Bio-One, Monroe, N.C., USA. Cell culture 384-well white opaque plates were purchased from Perkin Elmer, Waltham, Mass., USA. Cell-Titer Glo® was purchased from Promega Corporation, Madison, Wis., USA. SpectraMax M5 plate reader was purchased from Molecular Devices LLC, Sunnyvale, Calif., USA.
A compound source plate was prepared by performing triplicate nine-point 3-fold serial dilutions in DMSO, beginning at 10 mM (final top concentration of compound in the assay was 20 μM and the DMSO was 0.2%). A 100 nL aliquot from the compound stock plate was added to its respective well in the cell plate. […] After addition of compounds, assay plates were incubated for 5 days at 37° C., 5% CO2, relative humidity >90%.
Cell viability was measured by quantitation of ATP present in the cell cultures, adding […] of Cell Titer Glo® reagent to the cell plates. Luminescence was read in the SpectraMax M5 microplate reader. The concentration of compound inhibiting cell viability by 50% was determined using a 4-parametric fit of the normalized dose response curves.
Background: ATP-based viability assays read luminescence as a measure of living cells.

Read-outs that look alike come from different tables or passages of the source. Where only a bound is given, the exact number is not on record here.

Turning to `O=C(NC[C@H](O)CN1CCc2ccccc2C1)c1ccnc(NC2CCOCC2)c1` [Compound 192], the figures for the EC50 (in experiment [1]; in the experiment on Z-138 cell line) were < 0.1 µM and 0.101 to 1 µM, respectively.

`NCCNc1cc(C(=O)NC[C@H](O)CN2CCc3ccccc3C2)ccn1` [Compound 320]: the EC50 was 0.101 to 1 µM in experiment [1] and 1 to 10 µM in the experiment on Z-138 cell line.

Turning to `O=C(NC[C@H](O)CN1CCc2ccccc2C1)c1ccccc1` [Compound 3, (S)—N-(3-(3,4-dihydroisoquinolin-2(1H)-yl)-2-hydroxypropyl)benzamide], the EC50 is < 0.1 µM in experiment [1] and 1 to 10 µM in the experiment with Z-138 cell line.

As for `O=C(NC[C@H](O)CN1CCc2ccccc2C1)c1cc(NC2CN(CC(F)(F)F)C2)ncn1` [Compound 282], the EC50 in experiment [1] is < 0.1 µM; with Z-138 cell line it was 1 to 10 µM.

For the molecule `CC(=O)N1CCC(Oc2cccc(C(=O)NCC(O)CN3CCc4ccccc4C3)c2)C1` (stereo not drawn) [Compound 136], the EC50 in experiment [1] was < 0.1 µM; with Z-138 cell line it was 1 to 10 µM.

For `O=C(NCC(O)CN1CCc2ccccc2C1)c1ccc(N2CCS(=O)(=O)CC2)cc1` (stereo not drawn) [Compound 179], the EC50 in experiment [1] is < 0.1 µM; in the experiment with Z-138 cell line it was 1 to 10 µM.

As for `CN(c1ccc(C(=O)NCC(O)CN2CCc3ccccc3C2)cc1)C1CCOC1` (stereo not drawn) [Compound 144], the values for the EC50 (in experiment [1]; in the experiment with Z-138 cell line) were < 0.1 µM and 1 to 10 µM, respectively.

As to `CC(=O)N(C)CCNc1cc(C(=O)NC[C@H](O)CN2CCc3ccccc3C2)ccn1` [Compound 315], the values for the EC50 (in experiment [1]; in the experiment with Z-138 cell line) were < 0.1 µM and 0.101 to 1 µM, respectively.

As for `CN1CCC(Nc2ccc(C(=O)NCC(O)CN3CCc4ccccc4C3)cc2)CC1` (stereo not drawn) [Compound 139], the EC50 in experiment [1] is < 0.1 µM; in the experiment on Z-138 cell line it was 1 to 10 µM.

For the molecule `O=C(NC[C@H](O)CN1CCc2ccccc2C1)c1cc2cccc(Cl)c2[nH]1` [Compound 276], the EC50 in experiment [1] fell in the range of 0.101 to 1 µM; with Z-138 cell line, 1 to 10 µM.

Consider `COc1ccc(NC2CCOCC2)cc1C(=O)NCC(O)CN1CCc2ccccc2C1` (stereo not drawn) [Compound 77], for which the EC50 in experiment [1] was in the range of 0.101 to 1 µM; in the experiment with Z-138 cell line it was 1 to 10 µM.

As for `CS(=O)(=O)N1CC[C@@H](Nc2cccc(C(=O)NC[C@H](O)CN3CCc4ccccc4C3)c2)C1` [Compound 267], the EC50 was < 0.1 µM in experiment [1] and 0.101 to 1 µM in the experiment on Z-138 cell line.

Take `CN1CCC(Nc2cccc(C(=O)NC[C@H](O)CN3CCc4ccccc4C3)c2)CC1` [Compound 239]: the EC50 is < 0.1 µM in experiment [1] and 1 to 10 µM in the experiment on Z-138 cell line.

In the case of `Cc1cnc(NC2CCOCC2)cc1C(=O)NC[C@H](O)CN1CCc2ccccc2C1` [Compound 307], the values for the EC50 (in experiment [1]; in the experiment with Z-138 cell line) were < 0.1 µM and 0.101 to 1 µM, respectively.

For the molecule `O=C(NC[C@H](O)CN1CCc2ccccc2C1)c1n[nH]c2ccccc12` [Compound 242], the figures for the EC50 (in experiment [1]; in the experiment on Z-138 cell line) were 0.101 to 1 µM and 1 to 10 µM, respectively.

Take `CS(=O)(=O)N1CCC(Nc2cccc(C(=O)NC[C@H](O)CN3CCc4ccccc4C3)c2)CC1` [Compound 216]: the figures for the EC50 (in experiment [1]; in the experiment on Z-138 cell line) were < 0.1 µM and 0.101 to 1 µM, respectively.

Regarding `CN(C)CCNc1cc(C(=O)NC[C@H](O)CN2CCc3ccccc3C2)ccn1` [Compound 214], the EC50 was < 0.1 µM in experiment [1] and 1 to 10 µM in the experiment with Z-138 cell line.

In the case of `CN1CCC(Nc2cccc(C(=O)NCC(O)CN3CCc4ccccc4C3)c2)CC1` (stereo not drawn) [Compound 123], the EC50 in experiment [1] was 0.101 to 1 µM; with Z-138 cell line, 1 to 10 µM.

For the molecule `O=C(NCC(O)CN1CCc2ccccc2C1)c1cccc(CN2CCN(CCO)CC2)c1` (stereo not drawn) [Compound 113], the values for the EC50 (in experiment [1]; with Z-138 cell line) were 0.101 to 1 µM and 10 to 50 µM, respectively.

With `O=C(NC[C@H](O)CN1CCc2ccccc2C1)c1c[nH]c2ccccc12` [Compound 240], the EC50 in experiment [1] was 0.101 to 1 µM; with Z-138 cell line, > 20 µM.

On to `O=C(NC[C@H](O)CN1CCc2ccccc2C1)c1cncc(NC2CCNC2)c1` (stereo partly drawn) [Compound 259], for which the EC50 is 0.101 to 1 µM in experiment [1] and > 20 µM in the experiment on Z-138 cell line.

Regarding `CS(=O)(=O)N1CCC(Oc2cc(C(=O)NC[C@H](O)CN3CCc4ccccc4C3)ncn2)CC1` [Compound 286], the EC50 is < 0.1 µM in experiment [1] and 1 to 10 µM with Z-138 cell line.

As to `CN1CCC(Nc2cc(C(=O)NC[C@H](O)CN3CCc4ccccc4C3)ccn2)CC1` [Compound 223], the results for the EC50 (in experiment [1]; with Z-138 cell line) were < 0.1 µM and 1 to 10 µM, respectively.

Take `O=C(NC[C@H](O)CN1CCc2ccccc2C1)c1cccc(OC2CCOCC2)c1` [Compound 82]: the EC50 was < 0.1 µM in experiment [1] and 0.101 to 1 µM in the experiment on Z-138 cell line.

Take `CC(C)N1CCC(Nc2cccc(C(=O)NCC(O)CN3CCc4ccccc4C3)c2)CC1` (stereo not drawn) [Compound 103]: the values for the EC50 (in experiment [1]; in the experiment on Z-138 cell line) were < 0.1 µM and 10 to 50 µM, respectively.

Consider `CN1CCOC(CNc2cc(C(=O)NC[C@H](O)CN3CCc4ccccc4C3)ccn2)C1` (stereo partly drawn) [Compound 265], for which the results for the EC50 (in experiment [1]; in the experiment on Z-138 cell line) were 0.101 to 1 µM and 1 to 10 µM, respectively.

With `CS(=O)(=O)N1CCC(Nc2cc(C(=O)NC[C@H](O)CN3CCc4ccccc4C3)ccn2)CC1` [Compound 225], the EC50 (in experiment [1]; with Z-138 cell line) was < 0.1 µM throughout.

As to `O=C(NC[C@H](O)CN1CCc2ccccc2C1)c1cc2c(F)cccc2[nH]1` [Compound 296], the values for the EC50 (in experiment [1]; with Z-138 cell line) were < 0.1 µM and 0.101 to 1 µM, respectively.

As to `CN(c1cc(C(=O)NC[C@H](O)CN2CCc3ccccc3C2)ccn1)C1CCC1` [Compound 333], the EC50 in experiment [1] was < 0.1 µM; in the experiment with Z-138 cell line, 0.101 to 1 µM.

For `CS(=O)(=O)N1CCC(Oc2ccc(C(=O)NCC(O)CN3CCc4ccccc4C3)cc2)CC1` (stereo not drawn) [Compound 108], the EC50 in experiment [1] was < 0.1 µM; in the experiment with Z-138 cell line it was 0.101 to 1 µM.

With `Cc1ccc2cc(C(=O)NCC(O)CN3CCc4ccccc4C3)ccc2n1` (stereo not drawn) [Compound 84, N-(3-(3,4-dihydroisoquinolin-2(1H)-yl)-2-hydroxypropyl)-2-methylquinoline-6-carboxamide], the EC50 is < 0.1 µM in experiment [1] and 1 to 10 µM with Z-138 cell line.

With `O=C(NC[C@@H](O)CN1CCc2ccccc2C1)c1cc(NC2CCOCC2)ncn1` [Compound 185], the EC50 in experiment [1] lay within 0.101 to 1 µM; in the experiment with Z-138 cell line, 1 to 10 µM.

For the molecule `O=C(NC[C@@H](O)CN1CCc2ccccc2C1)c1ccnc(NC2CCOCC2)c1` [Compound 184], the results for the EC50 (in experiment [1]; in the experiment on Z-138 cell line) were < 0.1 µM and 1 to 10 µM, respectively.

For `CS(=O)(=O)N1CCC(Nc2cncc(C(=O)NC[C@H](O)CN3CCc4ccccc4C3)c2)CC1` [Compound 301], the EC50 is < 0.1 µM in experiment [1] and 0.101 to 1 µM in the experiment with Z-138 cell line.

In the case of `C[C@H]1COCCC1Nc1cccc(C(=O)NC[C@H](O)CN2CCc3ccccc3C2)c1` (stereo partly drawn) [Compound 213], the EC50 in experiment [1] was < 0.1 µM; with Z-138 cell line, 0.101 to 1 µM.

Consider `O=C(NC[C@H](O)CN1CCc2ccccc2C1)c1nccc2ccccc12` [Compound 272], for which the EC50 in experiment [1] is < 0.1 µM; in the experiment with Z-138 cell line, 1 to 10 µM.

In the case of `O=C(NC[C@H](O)CN1CCc2ccccc2C1)c1ccnc(Nc2ccncc2)c1` [Compound 412], the EC50 is < 0.1 µM in experiment [1] (In Cell Western methylation) and 0.101 to 1 µM with Z-138 cell line (Cell Titer Glo).

Turning to `O=C(NC[C@H](O)CN1CCc2ccccc2C1)c1ccc2ncsc2c1` [Compound 273], the EC50 in experiment [1] lay within 0.101 to 1 µM; in the experiment with Z-138 cell line, 1 to 10 µM.

With `O=C(NCC(O)CN1CCc2ccccc2C1)c1cccc(-c2ccccn2)c1` (stereo not drawn) [Compound 1, N-(3-(3,4-dihydroisoquinolin-2(1H)-yl)-2-hydroxypropyl)-3-(pyridin-2-yl)benzamide], the EC50 in experiment [1] was < 0.1 µM; with Z-138 cell line, 1 to 10 µM.

The record behind these values is patent US10307413B2, “Tetrahydro- and dihydro-isoquinoline PRMT5 inhibitors and uses thereof” (Epizyme, Inc., priority 2013, dated 2019).
